For 14 compounds, Ki results are on record in US8461107B2 (Merck Sharp & Dohme Corp., priority 2008, dated 2013).

For this experiment, the target named is T1, HCV genotype 1b (BK) NS3 modified with a R155K mutation (Hepatitis C virus genotype 1b, UniProt P26663, R1181K).
T1 construct: HCV genotype 1b (BK) NS3 modified with a R155K mutation
Put plainly: HCV NS3 protease time-resolved fluorescence (TRF) assay, NS3 protease 1b R155K Ki activity. It counts as biochemical. As to conditions: HCV genotype 1b (BK) NS3 with R155K mutation; TRF peptide substrate 100 nM; Ki derived from IC50. An outline of the steps:
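Pre-incubation of NS3/NS4A protease (genotype 1b BK, R155K) with inhibitor for 30 min, then 1 h at room temperature with 100 nM TRF peptide substrate in pH 7.5 HEPES buffer with 10 mM DTT. Reaction quenched with pH 5.5 MES; time-resolved fluorescence read (ex 340/em 615 nm). Ki derived from four-parameter IC50 fit via IC50=Ki(1+[S]/KM).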

On to `C=C[C@@H]1C[C@]1(NC(=O)[C@@H]1C[C@@H]2CN1C(=O)[C@H](C1CCCC1)NC(=O)O[C@@H]1CCC[C@H]1CCCCCn1c(nc3cc(Cl)ccc3c1=O)O2)C(=O)NS(=O)(=O)C1CC1` [(3aR,7S,10S,12R,25aR)-16-chloro-7-cyclopentyl-N-((1R,2S)-1-{[(cyclopropylsulfonyl)amino]carbonyl}-2-vinylcyclopropyl)-5,8,19-trioxo-1,2,3,3a,5,6,7,8,11,12,21,22,23,24,25,25a-hexadecahydro-10H,19H-9,12-methanocyclopenta[18,19][1,10,3,6,12]dioxatriazacyclononadecino[11,12-b]quinazoline-10-carboxamide], for which the inhibition constant Ki was below 100 pM.

Turning to `C=C[C@@H]1C[C@]1(NC(=O)[C@@H]1C[C@@H]2CN1C(=O)[C@H](C1CCCC1)NC(=O)O[C@@H]1CCC[C@H]1CC/C=C/Cn1c(nc3cc(C)ccc3c1=O)O2)C(=O)NS(=O)(=O)C1CC1` [Example 61], the Ki was below 100 pM.

Regarding `C=C[C@@H]1C[C@]1(NC(=O)[C@@H]1C[C@@H]2CN1C(=O)[C@H](C1CCCC1)NC(=O)O[C@@H]1CCC[C@H]1CC/C=C/Cn1c(nc3cccc(OC)c3c1=O)O2)C(=O)NS(=O)(=O)C1CC1` [(3aR,7S,10S,12R,22E,25aS)-7-cyclopentyl-N-((1R,2S)-1-{[(cyclopropylsulfonyl)amino]carbonyl}-2-vinylcyclopropyl)-18-methoxy-5,8,19-trioxo-1,2,3,3a,5,6,7,8,11,12,21,24,25,25a-tetradecahydro-10H,19H-9,12-methanocyclopenta[18,19][1,10,3,6,12]dioxatriazacyclononadecino[11,12-b]quinazoline-10-carboxamide], the Ki is below 100 pM.

`C=C[C@@H]1C[C@]1(NC(=O)[C@@H]1C[C@@H]2CN1C(=O)[C@H](C1CCCC1)NC(=O)O[C@@H]1CCC[C@H]1CCCCCn1c(cc3cc(OC)ccc3c1=O)O2)C(=O)NS(=O)(=O)C1CC1` [(3aR,7S,10S,12R,25aR)-7-cyclopentyl-N-((1R,2S)-1-{[(cyclopropylsulfonyl)amino]carbonyl}-2-vinylcyclopropyl)-16-methoxy-5,8,19-trioxo-1,2,3,3a,5,6,7,8,11,12,21,22,23,24,25,25a-hexadecahydro-10H,19H-9,12-methanocyclopenta[18,19][1,10,3,6,12]dioxatriazacyclononadecino[12,11-b]isoquinoline-10-carboxamide] returned a Ki below 100 pM.

The compound `CC[C@@H]1C[C@]1(NC(=O)[C@@H]1C[C@@H]2CN1C(=O)[C@H](C1CCCC1)NC(=O)O[C@@H]1CCC[C@H]1CCCCCn1c(nc3cc(OC)ccc3c1=O)O2)C(=O)NS(=O)(=O)C1CC1` [(3aR,7S,10S,12R,25aR)-7-cyclopentyl-N-((1R,2R)-1-{[(cyclopropylsulfonyl)amino]carbonyl}-2-ethylcyclopropyl)-16-methoxy-5,8,19-trioxo-1,2,3,3a,5,6,7,8,11,12,21,22,23,24,25,25a-hexadecahydro-10H,19H-9,12-methanocyclopenta[18,19][1,10,3,6,12]dioxatriazacyclononadecino[11,12-b]quinazoline-10-carboxamide] showed an inhibition constant (Ki) of 100 to 500 pM.

`CC[C@@H]1C[C@]1(NC(=O)[C@@H]1C[C@@H]2CN1C(=O)[C@H](C1CCCC1)NC(=O)O[C@@H]1CCC[C@H]1CC/C=C/Cn1c(nc3cc(Cl)ccc3c1=O)O2)C(=O)NS(=O)(=O)C1CC1` [(3aR,7S,10S,12R,22E,25aS)-16-chloro-7-cyclopentyl-N-((1R,2R)-1-{[(cyclopropylsulfonyl)amino]carbonyl}-2-ethylcyclopropyl)-5,8,19-trioxo-1,2,3,3a,5,6,7,8,11,12,21,24,25,25a-tetradecahydro-10H,19H-9,12-methanocyclopenta[18,19][1,10,3,6,12]dioxatriazacyclononadecino[11,12-b]quinazoline-10-carboxamide]: the Ki is 100 to 500 pM.

Take `C=C[C@@H]1C[C@]1(NC(=O)[C@@H]1C[C@@H]2CN1C(=O)[C@H](C1CCCC1)NC(=O)O[C@@H]1CCC[C@H]1C/C=C/CCn1c(cc3ccc(F)cc3c1=O)O2)C(=O)NS(=O)(=O)C1CC1` [(3aR,7S,10S,12R,23E,25aS)-7-cyclopentyl-N-((1R,2S)-1-{[(cyclopropylsulfonyl)amino]carbonyl}-2-vinylcyclopropyl)-17-fluoro-5,8,19-trioxo-1,2,3,3a,5,6,7,8,11,12,21,22,25,25a-tetradecahydro-10H,19H-9,12-methanocyclopenta[18,19][1,10,3,6,12]dioxatriazacyclononadecino[12,11-b]isoquinoline-10-carboxamide]: the Ki lay within 100 to 500 pM.

In turn, `C=C[C@@H]1C[C@]1(NC(=O)[C@@H]1C[C@@H]2CN1C(=O)[C@H](C1CCCC1)NC(=O)O[C@@H]1CCC[C@H]1CC/C=C/Cn1c(nc3ccccc3c1=O)O2)C(=O)NS(=O)(=O)C1CC1` [(3aR,7S,10S,12R,22E,25aS)-7-cyclopentyl-N-((1R,2S)-1-{[(cyclopropylsulfonyl)amino]carbonyl}-2-vinylcyclopropyl)-5,8,19-trioxo-1,2,3,3a,5,6,7,8,11,12,21,24,25,25a-tetradecahydro-10H,19H-9,12-methanocyclopenta[18,19][1,10,3,6,12]dioxatriazacyclononadecino[11,12-b]quinazoline-10-carboxamide] yielded a Ki below 100 pM.

The compound `C=C[C@@H]1C[C@]1(NC(=O)[C@@H]1C[C@@H]2CN1C(=O)[C@H](C1CCCC1)NC(=O)O[C@@H]1CCC[C@H]1CC/C=C/Cn1c(nc3cc(Cl)ccc3c1=O)O2)C(=O)NS(=O)(=O)C1CC1` [(3aR,7S,10S,12R,22E,25aS)-16-chloro-7-cyclopentyl-N-((1R,2S)-1-{[(cyclopropylsulfonyl)amino]carbonyl}-2-vinylcyclopropyl)-5,8,19-trioxo-1,2,3,3a,5,6,7,8,11,12,21,24,25,25a-tetradecahydro-10H,19H-9,12-methanocyclopenta[18,19][1,10,3,6,12]dioxatriazacyclononadecino[11,12-b]quinazoline-10-carboxamide] had a Ki below 100 pM.

The compound `C=C[C@@H]1C[C@]1(NC(=O)[C@@H]1C[C@@H]2CN1C(=O)[C@H](C1CCCC1)NC(=O)O[C@@H]1CCC[C@H]1CCC/C=C/Cn1c(cc3ccccc3c1=O)O2)C(=O)NS(=O)(=O)C1CC1` [(3aR,7S,10S,12R,22E,26aR)-7-cyclopentyl-N-((1R,2S)-1-{[(cyclopropylsulfonyl)amino]carbonyl}-2-vinylcyclopropyl)-5,8,19-trioxo-2,3,3a,5,6,7,8,11,12,21,24,25,26,26a-tetradecahydro-1H,10H,19H-9,12-methanocyclopenta[19,20][1,10,3,6,12]dioxatriazacycloicosino[12,11-b]isoquinoline-10-carboxamide] had a Ki of 100 to 500 pM.

On to `C=C[C@@H]1C[C@]1(NC(=O)[C@@H]1C[C@@H]2CN1C(=O)[C@H](C1CCCC1)NC(=O)O[C@@H]1CCC[C@H]1CCCCCn1c(nc3cc(Cl)ccc3c1=O)O2)C(=O)NS(=O)(=O)C1(C)CC1` [(1R,18R,22R,26S,29S)-7-chloro-26-cyclopentyl-N-[(1R,2S)-1-({[(1-methylcyclopropyl)sulfonyl]amino}carbonyl)-2-vinylcyclopropyl]-11,24,27-trioxo-2,23-dioxa-4,12,25,28-tetraazapentacyclo[26.2.1.0^3,12.0^5,10.0^18,22]hentriaconta-3,5,7,9-tetraene-29-carboxamide], for which the inhibition constant (Ki) was below 100 pM.

On to `C=C[C@@H]1C[C@]1(NC(=O)[C@@H]1C[C@@H]2CN1C(=O)[C@H](C1CCCC1)NC(=O)O[C@@H]1CCC[C@H]1CCCCn1c(cc3ccccc3c1=O)O2)C(=O)NS(=O)(=O)C1CC1` [Example 19, (3aR,7S,10S,12R,24aR)-7-cyclopentyl-N-((1R,2S)-1-{[(cycloproylsulfonyl)amino]carbonyl}-2-vinylcyclopropyl)-5,8,19-trioxo-2,3,3a,5,6,7,8,11,12,21,22,23,24,24a-tetradecahydro-1H,10H,19H-9,12-methanocyclopenta[17,18][1,10,3,6,12]dioxatriazacyclooctadecino[12,11-b]isoquinoline-10-carboxamide], for which the inhibitory constant (Ki) lay in the range of 100 to 500 pM.

Take `CC[C@@H]1C[C@]1(NC(=O)[C@@H]1C[C@@H]2CN1C(=O)[C@H](C(C)(C)C)NC(=O)O[C@@H]1CCC[C@H]1CCCCCn1c(cc3cc(Cl)ccc3c1=O)O2)C(=O)NS(=O)(=O)C1CC1` [Example 28, (3aR,7S,10S,12R,25aR)-7-tert-butyl-16-chloro-N-((1R,2R)-1-{[(cyclopropylsulfonyl)amino]carbonyl}-2-ethylcyclopropyl)-5,8,19-trioxo-1,2,3,3a,5,6,7,8,11,12,21,22,23,24,25,25a-hexadecahydro-10H,19H-9,12-methanocyclopenta[18,19][1,10,3,6,12]dioxatriazacyclononadecino[12,11-b]isoquinolin-10-carboxamide]: the Ki lay in the range of 100 to 500 pM.

In the case of `CC[C@@H]1C[C@]1(NC(=O)[C@@H]1C[C@@H]2CN1C(=O)[C@H](C1CCCC1)NC(=O)O[C@@H]1CCC[C@H]1CC/C=C/Cn1c(nc3c(OC)cccc3c1=O)O2)C(=O)NS(=O)(=O)C1CC1` [(3aR,7S,10S,12R,22E,25aS)-7-cyclopentyl-N-((1R,2R)-1-{[(cyclopropylsulfonyl)amino]carbonyl}-2-ethylcyclopropyl)-15-methoxy-5,8,19-trioxo-1,2,3,3a,5,6,7,8,11,12,21,24,25,25a-tetradecahydro-10H,19H-9,12-methanocyclopenta[18,19][1,10,3,6,12]dioxatriazacyclononadecino[11,12-b]quinazoline-10-carboxamide], the Ki was 100 to 500 pM.

As a reminder, the Ki is the equilibrium dissociation constant of an inhibitor or competing ligand from its target. Read a low Ki as a stronger hold on the target.
